Results: US12649739B2, “Imidazoquinoline compound having anti-inflammatory, antifugal, antiparasitic, and anticancer activity” (PHARMA CINQ, LLC, priority 2020, dated 2026)

Assays:
[1] = tested on: PC3 (prostate cancer) cell line; assay: Cell viability, WST-1 assay, PC3 cells; format: cell-based; settings: 48 and 72 hours, WST-1, FIGS. 3 and 4
[2] = tested on: imiquimod-induced dermatitis; assay: Imiquimod-induced psoriasiform dermatitis in mice, topical ointment; format: in vivo
[3] = tested on: A549 (lung cancer) cell line; assay: Cell viability, WST-1 assay, A549 cells; format: cell-based; settings: 48 and 72 hours, WST-1, FIGS. 1 and 2
C. neoformans = settings: in vitro, maximal inhibition

c1ccc(Oc2cccc(Cc3nc4cnc5ccccc5c4[nH]3)c2)cc1 [Compound GE, 2-(3-Phenoxybenzyl)-1H-imidazo[4,5-c]quinoline] was tested, and the “doses reducing cancer cell viability, relative to those required for similar reductions by compound AF” value [1] was “approximately 1/10”, the “ear thickness (caliper measurements)” value ([2]; female Balb/C mice, 0.01% ointment topically on ears, started day 5 of imiquimod, FIG. 5) was “reduced imiquimod-induced inflammatory damage to mouse ears” and the “PASI scoring (erythema, thickening, scaling, cumulative)” value ([2]; female Balb/C mice, 0.01% ointment topically on ears, started day 5 of imiquimod, FIGS. 6A-D) was “reducing all three aspects of dermal inflammation captured by the PASI scoring system”. The “efficacy in model of psoriasiform dermatitis” value ([2]; ointment concentration of 0.01%) was “effective” and the “doses reducing cancer cell viability, relative to those required for similar reductions by compound AF” value [3] was “approximately 1/10”.

For CCN(CC)CCCC(C)Nc1ccnc2cc(Cl)ccc12 (stereo not drawn) [Chloroquine], the “inhibition of C. neoformans growth (ceiling)” value (C. neoformans) was “about 40%”.
